One assay addresses T1, ROCK1 (Homo sapiens, UniProt Q13464).
T1 construct: purchased DiscoverX (KINOMEscan KdELECT service); host or cells: E. coli BL21-derived (T7 phage) or HEK-293
The assay is described as follows: ROCK1 kinase binding affinity, DiscoverX KINOMEscan KdELECT. The following applies: equilibrium dissociation constant, 11-point 3-fold dilution series. As to the method:
(§1) 1. ROCK1 and ROCK2 kinase assays: The ROCK1 and ROCK2 kinase binding affinities of compounds in this invention were determined by DiscoverX's KINOMEscan™ KdELECT technology (https://www.discoverx.com/kinomescan-elect-kinase-screening-and-profiling-services): Kinase-tagged T7 phage strains were prepared in an E. coli host derived from the BL21 strain. E. coli were grown to log-phase and infected with T7 phage and incubated with shaking at 32° C. until lysis. The lysates were centrifuged and filtered to remove cell debris. The remaining kinases were produced in HEK-293 cells and subsequently tagged with DNA for qPCR detection. Streptavidin-coated magnetic beads were treated with biotinylated small molecule ligands for 30 minutes at room temperature to generate affinity resins for kinase assays. The liganded beads were blocked with excess biotin and washed with blocking buffer (SeaBlock (Pierce), 1% BSA, 0.05% Tween 20, 1 mM DTT) to remove unbound ligand and to reduce nonspecific binding. […] Test compounds were prepared as 111X stocks in 100% DMSO. Kds were determined using an 11-point 3-fold compound dilution series with three DMSO control points. […] The compounds were then diluted directly into the assays such that the final concentration of DMSO was 0.9%. All reactions performed in polypropylene 384-well plate. Each was a final volume of 0.02 ml. […] The kinase concentration in the eluates was measured by qPCR.

The next assay has as its target T2, ROCK2 (Homo sapiens, UniProt O75116).
T2 construct: purchased DiscoverX (KINOMEscan KdELECT service); host or cells: E. coli BL21-derived (T7 phage) or HEK-293
As to the kind of experiment: ROCK2 kinase binding affinity, DiscoverX KINOMEscan KdELECT. The following applies: for ROCK 2 Selectivity: ROCK2 over ROCK1, from Kd values, N/C = not calculated. As to the method: as §1

Where [1] appears, read: equilibrium dissociation constant, 11-point 3-fold dilution series, read-out: Kd (μM) ROCK2.

Where two headings read alike, the source gives them in different places.

T1 sequence (Q13464 whole entry): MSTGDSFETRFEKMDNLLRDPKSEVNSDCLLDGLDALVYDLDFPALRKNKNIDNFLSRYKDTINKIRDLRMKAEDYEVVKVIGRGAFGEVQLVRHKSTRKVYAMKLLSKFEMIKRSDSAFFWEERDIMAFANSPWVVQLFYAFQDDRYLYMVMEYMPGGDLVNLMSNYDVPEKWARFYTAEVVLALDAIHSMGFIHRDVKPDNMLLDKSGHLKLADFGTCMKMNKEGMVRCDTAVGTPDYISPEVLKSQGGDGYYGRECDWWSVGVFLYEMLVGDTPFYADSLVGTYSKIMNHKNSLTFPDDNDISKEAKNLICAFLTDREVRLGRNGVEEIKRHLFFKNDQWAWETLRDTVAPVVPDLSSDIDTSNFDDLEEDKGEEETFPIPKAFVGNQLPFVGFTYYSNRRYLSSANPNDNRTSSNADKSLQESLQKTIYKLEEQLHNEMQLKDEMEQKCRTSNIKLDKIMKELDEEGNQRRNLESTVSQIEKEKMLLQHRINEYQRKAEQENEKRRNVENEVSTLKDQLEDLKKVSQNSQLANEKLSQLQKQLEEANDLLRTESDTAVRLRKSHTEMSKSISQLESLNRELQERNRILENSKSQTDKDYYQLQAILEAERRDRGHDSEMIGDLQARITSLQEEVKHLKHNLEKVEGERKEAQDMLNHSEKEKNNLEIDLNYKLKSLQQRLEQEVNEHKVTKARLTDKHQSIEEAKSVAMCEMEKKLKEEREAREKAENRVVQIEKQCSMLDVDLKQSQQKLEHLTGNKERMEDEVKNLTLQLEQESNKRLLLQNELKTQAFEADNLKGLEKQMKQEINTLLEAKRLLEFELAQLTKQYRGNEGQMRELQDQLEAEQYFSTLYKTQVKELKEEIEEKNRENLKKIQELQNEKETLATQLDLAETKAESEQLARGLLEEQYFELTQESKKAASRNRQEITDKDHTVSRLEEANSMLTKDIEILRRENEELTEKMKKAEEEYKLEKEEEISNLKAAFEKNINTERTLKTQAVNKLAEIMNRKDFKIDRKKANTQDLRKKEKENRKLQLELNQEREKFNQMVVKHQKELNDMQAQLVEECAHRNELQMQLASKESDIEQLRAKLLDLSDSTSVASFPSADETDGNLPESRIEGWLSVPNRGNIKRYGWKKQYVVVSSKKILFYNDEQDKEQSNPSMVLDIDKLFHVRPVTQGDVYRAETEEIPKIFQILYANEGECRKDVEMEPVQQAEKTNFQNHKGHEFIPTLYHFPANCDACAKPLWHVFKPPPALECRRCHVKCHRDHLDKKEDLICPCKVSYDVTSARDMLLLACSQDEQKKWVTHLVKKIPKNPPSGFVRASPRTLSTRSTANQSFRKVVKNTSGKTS
T2 sequence (O75116 whole entry): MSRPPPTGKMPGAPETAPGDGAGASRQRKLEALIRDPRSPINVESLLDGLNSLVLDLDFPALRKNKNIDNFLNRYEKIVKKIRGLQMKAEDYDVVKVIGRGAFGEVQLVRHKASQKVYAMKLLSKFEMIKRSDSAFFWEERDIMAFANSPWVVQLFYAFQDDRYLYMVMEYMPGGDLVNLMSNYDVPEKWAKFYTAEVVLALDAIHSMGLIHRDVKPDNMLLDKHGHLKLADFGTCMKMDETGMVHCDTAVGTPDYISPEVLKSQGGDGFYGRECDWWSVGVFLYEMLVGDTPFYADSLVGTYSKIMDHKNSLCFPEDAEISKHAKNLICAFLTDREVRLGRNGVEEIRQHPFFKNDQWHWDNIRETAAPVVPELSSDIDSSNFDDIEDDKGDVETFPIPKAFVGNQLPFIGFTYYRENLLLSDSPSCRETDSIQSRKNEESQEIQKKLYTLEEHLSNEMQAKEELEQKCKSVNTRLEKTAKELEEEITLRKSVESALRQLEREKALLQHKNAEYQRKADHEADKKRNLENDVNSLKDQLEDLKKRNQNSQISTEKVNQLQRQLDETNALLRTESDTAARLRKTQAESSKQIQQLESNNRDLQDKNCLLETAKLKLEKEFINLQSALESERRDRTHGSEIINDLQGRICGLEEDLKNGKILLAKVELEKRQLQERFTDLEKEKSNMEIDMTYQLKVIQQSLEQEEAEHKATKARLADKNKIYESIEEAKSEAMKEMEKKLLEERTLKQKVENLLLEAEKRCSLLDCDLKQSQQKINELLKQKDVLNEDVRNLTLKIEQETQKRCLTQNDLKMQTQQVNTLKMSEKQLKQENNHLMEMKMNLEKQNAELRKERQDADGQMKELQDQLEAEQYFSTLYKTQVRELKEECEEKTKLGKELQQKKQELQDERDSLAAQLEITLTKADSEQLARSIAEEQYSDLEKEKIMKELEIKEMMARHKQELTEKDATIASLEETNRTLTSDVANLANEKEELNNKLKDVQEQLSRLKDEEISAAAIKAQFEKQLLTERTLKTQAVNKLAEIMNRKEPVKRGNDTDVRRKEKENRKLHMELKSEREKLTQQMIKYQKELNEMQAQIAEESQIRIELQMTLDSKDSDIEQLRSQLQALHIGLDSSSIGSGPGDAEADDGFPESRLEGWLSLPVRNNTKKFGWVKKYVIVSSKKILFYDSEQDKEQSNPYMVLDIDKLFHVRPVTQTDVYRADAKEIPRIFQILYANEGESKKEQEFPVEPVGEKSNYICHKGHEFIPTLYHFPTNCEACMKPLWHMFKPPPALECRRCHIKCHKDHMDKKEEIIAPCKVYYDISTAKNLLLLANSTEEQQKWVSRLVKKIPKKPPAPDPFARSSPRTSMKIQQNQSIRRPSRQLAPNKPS

For `COc1ccc2c(c1)CN(c1nccc(-c3nccc(C#Cc4ccncc4)n3)n1)C2` [Ex. 1, 5-Methoxy-2-(4-(pyridin-4-ylethynyl)-[2,4′-bipyrimidin]-2′-yl)isoindoline], the Kd at ROCK1 and at ROCK2 (setting [1]) was above 30 µM each time.
Take `COc1ccc2c(c1)CN(c1nccc(-c3nccc(C#Cc4cn[nH]c4)n3)n1)C2` [Ex. 2, 2-(4-((1H-Pyrazol-4-yl)ethynyl)-[2,4′-bipyrimidin]-2′-yl)-5-methoxyisoindoline]: the Kd on ROCK1 and on ROCK2 (setting [1]) was above 30 µM throughout.
Take `COc1ccc2c(c1)CN(c1nccc(-c3nccc(C#Cc4ccc5[nH]ncc5c4)n3)n1)C2` [Ex. 3, 5-((2′-(5-Methoxyisoindolin-2-yl)-[2,4′-bipyrimidin]-4-yl)ethynyl)-1H-indazole]: the Kd (commonly the equilibrium constant for the complex coming apart) came to 0.82 µM on ROCK1 and 0.0069 µM at ROCK2 (setting [1]). Further, on ROCK2, the “ROCK 2 Selectivity” value is 119.
For `COc1ccc2c(c1)CN(c1nccc(-c3nccc(C#Cc4ccc5c(N)nccc5c4)n3)n1)C2` [Ex. 4, 6-((2′-(5-Methoxyisoindolin-2-yl)-[2,4′-bipyrimidin]-4-yl)ethynyl)isoquinolin-1-amine], the Kd was above 30 µM at ROCK1 and 8.2 µM on ROCK2 (setting [1]). The “ROCK 2 Selectivity” value at ROCK2 was above 3.66.
For `COc1ccc2c(c1)CN(c1nccc(-c3nccc(C#Cc4ccc5[nH]nc(F)c5c4)n3)n1)C2` [Ex. 5, 3-Fluoro-5-((2′-(5-methoxyisoindolin-2-yl)-[2,4′-bipyrimidin]-4-yl)ethynyl)-1H-indazole] the same measures were above 30 µM, 0.02 µM and above 1500.
For `COc1ccc2c(c1)CN(c1nccc(-c3nccc(C#Cc4cc(F)c5[nH]ncc5c4)n3)n1)C2` [Ex. 6, 7-Fluoro-5-((2′-(5-methoxyisoindolin-2-yl)-[2,4′-bipyrimidin]-4-yl)ethynyl)-1H-indazole] the same measures were 29 µM, 0.012 µM and 2417.
Turning to `COc1ccc2c(c1)CN(c1nccc(-c3nccc(C#Cc4ccc5c(c4)CNC5=O)n3)n1)C2` [Ex. 7, 5-((2′-(5-Methoxyisoindolin-2-yl)-[2,4′-bipyrimidin]-4-yl)ethynyl)isoindolin-1-one], the Kd on ROCK1 and on ROCK2 (setting [1]) was above 30 µM each time.
In the case of `COC(=O)c1ccc(C#Cc2ccnc(-c3ccnc(N4Cc5ccc(OC)cc5C4)n3)n2)cc1` [Ex. 8, Methyl 4-((2′-(5-methoxyisoindolin-2-yl)-[2,4′-bipyrimidin]-4-yl)ethynyl)benzoate], the Kd at ROCK1 and at ROCK2 (setting [1]) was above 30 µM each time.
As for `COc1ccc2c(c1)CN(c1nccc(-c3nccc(C#Cc4ccc(C#N)cc4)n3)n1)C2` [Ex. 9, 4-((2′-(5-Methoxyisoindolin-2-yl)-[2,4′-bipyrimidin]-4-yl)ethynyl)benzonitrile], the equilibrium dissociation constant (Kd) at ROCK1 and at ROCK2 (setting [1]) was above 30 µM in each case.
Take `COc1ccc2c(c1)CN(c1nccc(-c3nccc(C#Cc4ccc(C(=O)O)cc4)n3)n1)C2` [Ex. 10, 4-((2′-(5-Methoxyisoindolin-2-yl)-[2,4′-bipyrimidin]-4-yl)ethynyl)benzoic acid]: the Kd on ROCK1 and on ROCK2 (setting [1]) was above 30 µM throughout.
As to `CNC(=O)c1ccc(C#Cc2ccnc(-c3ccnc(N4Cc5ccc(OC)cc5C4)n3)n2)cc1` [Ex. 11, 4-((2′-(5-Methoxyisoindolin-2-yl)-[2,4′-bipyrimidin]-4-yl)ethynyl)-N-methylbenzamide], the Kd on ROCK1 and at ROCK2 (setting [1]) was above 30 µM in each case.
`C(#Cc1ccnc(-c2ccnc(N3Cc4ccccc4C3)n2)n1)c1ccc2[nH]ncc2c1` [Ex. 12, 5-((2′-(Isoindolin-2-yl)-[2,4′-bipyrimidin]-4-yl)ethynyl)-1H-indazole]: the figures for the Kd on ROCK1 and on ROCK2 (setting [1]) were 0.25 µM and 0.0018 µM, respectively. The “ROCK 2 Selectivity” value on ROCK2 is 139.
As for `Fc1ccc2c(c1)CN(c1nccc(-c3nccc(C#Cc4ccc5[nH]ncc5c4)n3)n1)C2` [Ex. 13, 5-((2′-(5-Fluoroisoindolin-2-yl)-[2,4′-bipyrimidin]-4-yl)ethynyl)-1H-indazole], the figures for the Kd on ROCK1 and at ROCK2 (setting [1]) were 9.2 µM and 0.0079 µM, respectively. Also, the “ROCK 2 Selectivity” value at ROCK2 is 1164.
For the molecule `Fc1ccc2c(c1)CN(c1nccc(-c3nccc(C#Cc4cc(F)c5[nH]ncc5c4)n3)n1)C2` [Ex. 14, 7-Fluoro-5-((2′-(5-fluoroisoindolin-2-yl)-[2,4′-bipyrimidin]-4-yl)ethynyl)-1H-indazole], the figures for the Kd on ROCK1 and at ROCK2 (setting [1]) were above 30 µM and 0.028 µM, respectively. Further, the “ROCK 2 Selectivity” value on ROCK2 is given as above 1071.
Taken in the same sequence, the figures for `COc1cc2c(cn1)CN(c1nccc(-c3nccc(C#Cc4ccc5[nH]ncc5c4)n3)n1)C2` [Ex. 15, 5-((2′-(6-Methoxy-1,3-dihydro-2H-pyrrolo[3,4-c]pyridin-2-yl)-[2,4′-bipyrimidin]-4-yl)ethynyl)-1H-indazole] were above 6 µM, 0.17 µM and above 35.
Turning to `Oc1cc2c(cn1)CN(c1nccc(-c3nccc(C#Cc4ccc5[nH]ncc5c4)n3)n1)C2` [Ex. 16, 2-(4-((1H-Indazol-5-yl)ethynyl)-[2,4′-bipyrimidin]-2′-yl)-2,3-dihydro-1H-pyrrolo[3,4-c]pyridin-6-ol], the values for the Kd on ROCK1 and on ROCK2 (setting [1]) were above 6 µM and 0.26 µM, respectively. The “ROCK 2 Selectivity” value at ROCK2 is recorded as above 23.
For `Clc1cc2c(cn1)CN(c1nccc(-c3nccc(C#Cc4ccc5[nH]ncc5c4)n3)n1)C2` [Ex. 17, 5-((2′-(6-Chloro-1,3-dihydro-2H-pyrrolo[3,4-c]pyridin-2-yl)-[2,4′-bipyrimidin]-4-yl)ethynyl)-1H-indazole] the same measures were above 6 µM, 0.049 µM and above 122.
For the molecule `COc1ccc2c(c1)CN(c1nccc(-c3cccc(C#Cc4ccc5[nH]ncc5c4)n3)n1)C2` [Ex. 18, 5-((6-(2-(5-Methoxyisoindolin-2-yl)pyrimidin-4-yl)pyridin-2-yl)ethynyl)-1H-indazole], the Kd at ROCK1 is 25 µM; at ROCK2 (setting [1]), 0.12 µM.
In turn, `COc1ccc2c(c1)CN(c1nccc(-c3cccc(C#Cc4cc(F)c5[nH]ncc5c4)n3)n1)C2` [Ex. 19, 7-Fluoro-5-((6-(2-(5-methoxyisoindolin-2-yl)pyrimidin-4-yl)pyridin-2-yl)ethynyl)-1H-indazole] came in with an equilibrium dissociation constant (Kd) on ROCK1 above 30 µM. Further, at ROCK2, the Kd is 2.8 µM and the “ROCK 2 Selectivity” value was above 10.7.
In the case of `Fc1ccc2c(c1)CN(c1nccc(-c3cccc(C#Cc4ccc5[nH]ncc5c4)n3)n1)C2` [Ex. 20, 5-((6-(2-(5-Fluoroisoindolin-2-yl)pyrimidin-4-yl)pyridin-2-yl)ethynyl)-1H-indazole], the results for the dissociation constant (Kd) at ROCK1 and on ROCK2 (setting [1]) were above 30 µM and 5.5 µM, respectively. Besides, the “ROCK 2 Selectivity” value on ROCK2 is above 5.4.
Turning to `Fc1ccc2c(c1)CN(c1nccc(-c3cccc(C#Cc4cc(F)c5[nH]ncc5c4)n3)n1)C2` [Ex. 21, 7-Fluoro-5-((6-(2-(5-fluoroisoindolin-2-yl)pyrimidin-4-yl)pyridin-2-yl)ethynyl)-1H-indazole], the dissociation constant (Kd) is above 30 µM at ROCK1 and 6.8 µM at ROCK2. In addition, at ROCK2, the “ROCK 2 Selectivity” value was above 4.4.
For the molecule `CN(C)CCOc1ccc2c(c1)CN(c1nccc(-c3cccc(C#Cc4ccc5[nH]ncc5c4)n3)n1)C2` [Ex. 22, 2-((2-(4-(6-((1H-Indazol-5-yl)ethynyl)pyridin-2-yl)pyrimidin-2-yl)isoindolin-5-yl)oxy)-N,N-dimethylethanamine], the values for the dissociation constant Kd on ROCK1 and at ROCK2 (setting [1]) were above 30 µM and 1.5 µM, respectively. Besides, the “ROCK 2 Selectivity” value at ROCK2 is reported as above 20.

These data come from patent publication US20220281841A1, “ETHYNYLHETEROCYCLES AS RHO-ASSOCIATED COILED-COIL KINASE (ROCK) INHIBITORS” (Angion Biomedica Corp., priority 2019, published 2022).
